Earlier results as cited in patent US10172867B2, “Afobazole nanoparticles formulation for enhanced therapeutics” (University of South Florida, priority 2014, dated 2019).

Key:
[1] = in vivo
muscarinic receptors = settings: Seredenin et al., 2009
σ-2 receptor = σ-2 receptor (Homo sapiens, UniProt Q5BJF2); settings: Cuevas et al., 2011
in vitro ischemia model = settings: Cuevas et al.
σ-1 receptor = settings: Cuevas et al., 2011

Sequence of σ-2 receptor (Q5BJF2 whole entry, species assumed): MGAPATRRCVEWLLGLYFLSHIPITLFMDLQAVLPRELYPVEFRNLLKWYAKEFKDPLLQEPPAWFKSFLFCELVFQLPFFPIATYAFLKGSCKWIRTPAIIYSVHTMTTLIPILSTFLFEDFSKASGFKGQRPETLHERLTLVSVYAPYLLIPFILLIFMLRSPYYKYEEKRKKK

brain penetration [1]: limited brain penetration | half-life [1]: short half-life | interaction with muscarinic receptors (muscarinic receptors): does not interact | σ-2 receptor activity (σ-2 receptor): agonist | σ-1 receptor activity (σ-1 receptor): agonist
SMILES: CCOc1ccc2nc(SCCN3CCOCC3)[nH]c2c1 [Afobazole, 5-ethoxy-2[2-(morpholine)-ethylthio]benzimidazole]
neuroprotection (in vitro ischemia model; in vitro ischemia model, 2011): provides neuroprotection | ischemia-induced Ca2+ overload (in vitro ischemia model; via activation of σ-1 receptors, Katnik et al., 2006, 2011a): decrease in ischemia-induced Ca^2+ overload
